Here are results for two compounds from patent publication US4902505A, “Chimeric peptides for neuropeptide delivery through the blood-brain barrier” (Alkermes, priority 1988, dated 1990).

The subject of data set [1] is isolated bovine brain microvessels. The experiment in a line: Radioreceptor assay (uptake) using isolated bovine brain microvessels. It counts as cell-based. The conditions noted are these: up to 60 minutes incubation at room temperature; FIG. 1. Here is the method:
Somatostatin was obtained from Peninsula Laboratories and tritiated by reductive methylation using ^3 H-sodium borohydride. […] The two compounds were coupled together using SPDP as described in Example 1. Bovine brain microvessels were isolated as described in Pardridge, et al., "Rapid Sequestration And Degradation Of Somatostatin Analogues By Isolated Brain Microvessels", (Journal of Neurochemistry, Vol. 44, No. 4, 1985, pp. 1178-1184).
^3 H-somatostatin was added to one set of microvessels for up to 60 minutes incubation at room temperature. In another set of incubations, the ^3 H-somatostatin-^125 I-insulin chimera was also added. […] The uptake of the free somatostatin likely represents nonspecific binding as described in the article mentioned above (Journal of Neurochemistry, Vol. 44, No. 4, 1985).
Previous studies have shown that the receptor-mediated endocytosis of peptides in the isolated brain microvessels is a reliable index of the in vivo blood-brain barrier receptor transport activity of peptides in vivo (see my previously-mentioned article in Endocrine Reviews, Vol. 7, No. 3, Aug. 1986).

A further data set relates to blood-brain barrier. The conditions noted are these: general statement, no test described; cited from earlier work.

As for `C[C@H](N)C(=O)NCC(=O)N[C@H]1CSSC[C@@H](C(=O)O)NC(=O)[C@H](CO)NC(=O)[C@H]([C@@H](C)O)NC(=O)[C@H](Cc2ccccc2)NC(=O)[C@H]([C@@H](C)O)NC(=O)[C@H](CCCCN)NC(=O)[C@H](Cc2c[nH]c3ccccc23)NC(=O)[C@H](Cc2ccccc2)NC(=O)[C@H](Cc2ccccc2)NC(=O)[C@H](CC(N)=O)NC(=O)[C@H](CCCCN)NC1=O` [somatostatin], in data set [1], the “change of uptake with time” value is on record as “no increase in time”. Besides, the “transport through the blood-brain barrier” value in the data set with blood-brain barrier was “not transported”.
Turning to “cationized albumin: bovine serum albumin covalently coupled with hexamethylene-diamine”, the “transport through the blood-brain barrier” value with blood-brain barrier is listed as “enters the brain rapidly”.
